From US20230071840A1, “HETEROCYCLIC GLP-1 AGONISTS” (Gasherbrum Bio, Inc., priority 2020, published 2023) come the findings set out here.

In one assay the target is GLP-1 Receptor (Homo sapiens, UniProt P43220). Description: GLP-1R agonist cAMP stimulation assay (HEK293/GLP1R/CRE-LUC cells, cAMP dynamic 2 kit). Format: cell-based. Particulars: HEK293/CRE-Luc cell line stably expressing the GLP-1 Receptor; 30 min incubation at 37° C.; read-out: GLP1R cAMP Stimulation DR: EC50. The procedure: Activation of GLP-1 receptor is known to stimulate cyclic AMP (cAMP) production in cells which indicates primary coupling to the Gas subunit of the G protein heterotrimeric complex.
GLP-1 Receptor, sequence (P43220 24-463, species assumed): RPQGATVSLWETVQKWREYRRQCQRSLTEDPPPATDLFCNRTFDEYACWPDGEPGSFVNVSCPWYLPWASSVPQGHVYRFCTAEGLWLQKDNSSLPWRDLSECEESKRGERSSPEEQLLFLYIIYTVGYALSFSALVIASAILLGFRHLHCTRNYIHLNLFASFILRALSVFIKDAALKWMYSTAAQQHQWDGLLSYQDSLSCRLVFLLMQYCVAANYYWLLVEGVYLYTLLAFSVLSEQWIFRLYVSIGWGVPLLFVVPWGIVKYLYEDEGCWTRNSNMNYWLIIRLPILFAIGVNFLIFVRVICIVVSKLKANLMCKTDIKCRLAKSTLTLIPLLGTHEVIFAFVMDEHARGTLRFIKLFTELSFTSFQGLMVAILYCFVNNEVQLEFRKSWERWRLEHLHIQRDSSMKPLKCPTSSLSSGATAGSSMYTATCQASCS
To optimize functional activity directed toward Gas coupling, a HEK293/CRE-Luc cell line developed by HDB stably expressing the GLP-1 Receptor was used. […] Seal the plate and incubate at 37° C. with 5% CO2 for 30 min.
After incubation the cAMP assay signal was generated using cAMP dynamic 2 Kit (Cisbio). 5 μL cAMP-d2 working solution was added to each well, followed with 5 μL Anti-cAMP antibody-cryptate working solution added to each well using ThermoFisher Multidrop Combi. Incubate at room temperature for 1 hour protected from light.
% Activity=[…]×(mean RLU of test sample−mean RLU of vehicle control)/(mean RLU of MAX control−mean RLU of vehicle control))
As for `O=C(O)c1ccc2nc(CN3CCC(Oc4cccc(C(F)(F)c5ccc(Cl)cc5F)n4)CC3)n(C[C@@H]3CCO3)c2n1` [Compound 129a, 2-{[4-({6-[(4-chloro-2-fluorophenyl)difluoromethyl]pyridin-2-yl}oxy)piperidin-1-yl]methyl}-3-{[(2S)-oxetan-2-yl]methyl}-3H-imidazo[4,5-b]pyridine-5-carboxylic acid], the EC50 was 0.91 nM.
On to `O=C(O)c1ccc2nc(CN3CCC(Oc4cccc(Cc5ccc(Cl)cc5F)n4)C3)n(C[C@@H]3CCO3)c2n1` (stereo partly drawn) [Compound 130a, 2-{[3-({6-[(4-chloro-2-fluorophenyl)methyl]pyridin-2-yl}oxy)pyrrolidin-1-yl]methyl}-3-{[(2S)-oxetan-2-yl]methyl}-3H-imidazo[4,5-b]pyridine-5-carboxylic acid], for which the EC50 turned out to be 53 nM.
The same measure, in the same setting: with `Cc1cn(Cc2ccc(Cl)cc2F)nc1OC1CCN(Cc2nc3ccc(C(=O)O)nc3n2C[C@@H]2CCO2)CC1` [Compound 133a, 2-{[4-({1-[(4-chloro-2-fluorophenyl)methyl]-4-methyl-1H-pyrazol-3-yl}oxy)piperidin-1-yl]methyl}-3-{[(2S)-oxetan-2-yl]methyl}-3H-imidazo[4,5-b]pyridine-5-carboxylic acid] the figure was 2.4 nM; with `CC(=O)Nc1ccc2nc(CN3CCC(Oc4cccc(Cc5ccc(Cl)cc5F)n4)CC3)n(C[C@@H]3CCO3)c2c1` [Compound 134a, N-(2-{[4-({6-[(4-chloro-2-fluorophenyl)methyl]pyridin-2-yl}oxy)piperidin-1-yl]methyl}-1-{[(2S)-oxetan-2-yl]methyl}-1H-1,3-benzodiazol-6-yl)acetamide], 58 nM.
Consider `N#Cc1ccc(Cc2cccc(OC3CCN(Cc4nc5ccc(C(=O)O)cc5n4C[C@@H]4CCO4)CC3)n2)c(F)c1` [Compound 135a, 2-{[4-({6-[(4-cyano-2-fluorophenyl)methyl]pyridin-2-yl}oxy)piperidin-1-yl]methyl}-1-{[(2S)-oxetan-2-yl]methyl}-1H-1,3-benzodiazole-6-carboxylic acid], for which the EC50 was 1.8 nM.
In the case of `N#Cc1ccc(Cc2cccc(OC3CCN(Cc4nc5ccc(C(=O)O)nc5n4C[C@@H]4CCO4)CC3)n2)c(F)c1` [Compound 136a, 2-{[4-({6-[(4-cyano-2-fluorophenyl)methyl]pyridin-2-yl}oxy)piperidin-1-yl]methyl}-3-{[(2S)-oxetan-2-yl]methyl}-3H-imidazo[4,5-b]pyridine-5-carboxylic acid], the EC50 was 0.44 nM.
On to `O=C(O)c1ccc2nc(CN3CCC(Oc4nc(Cc5ccc(Cl)cc5F)ccc4Cl)CC3)n(C[C@@H]3CCO3)c2n1` [Compound 137a, 2-{[4-({3-chloro-6-[(4-chloro-2-fluorophenyl)methyl]pyridin-2-yl}oxy)piperidin-1-yl]methyl}-3-{[(2S)-oxetan-2-yl]methyl}-3H-imidazo[4,5-b]pyridine-5-carboxylic acid], for which the EC50 is 51 nM.
Turning to `O=C(O)c1ccc2nc(CN3CCC(n4ccc5ccc(Cc6ccc(Cl)cc6F)nc54)CC3)n(C[C@@H]3CCO3)c2n1` [Compound 140a, 2-[(4-{6-[(4-chloro-2-fluorophenyl)methyl]-1H-pyrrolo[2,3-b]pyridin-1-yl}piperidin-1-yl)methyl]-3-{[(2S)-oxetan-2-yl]methyl}-3H-imidazo[4,5-b]pyridine-5-carboxylic acid], the EC50 was found to be 1.2 nM.
As for `O=C(O)c1ccc2nc(CN3CCC(c4cccc5cn(Cc6ccc(Cl)cc6F)nc45)CC3)n(C[C@@H]3CCO3)c2n1` [Compound 142a, (S)-2-((4-(2-(4-chloro-2-fluorobenzyl)-2H-indazol-7-yl)piperidin-1-yl)methyl)-3-(oxetan-2-ylmethyl)-3H-imidazo[4,5-b]pyridine-5-carboxylic acid], the EC50 was determined as 1.7 nM.
Regarding `O=C(O)c1ccc2nc(CN3CCC(c4cccc5nc(Cc6ccc(Cl)cc6F)oc45)CC3)n(C[C@@H]3CCO3)c2n1` [Compound 143a, (S)-2-((4-(2-(4-chloro-2-fluorobenzyl)benzo[d]oxazol-7-yl)piperidin-1-yl)methyl)-3-(oxetan-2-ylmethyl)-3H-imidazo[4,5-b]pyridine-5-carboxylic acid], the EC50 was found to be 0.53 nM.
Take `O=C(O)c1ccc2nc(CN3CCC(Oc4ccc(=O)n(Cc5ccc(Cl)cc5F)n4)CC3)n(C[C@@H]3CCO3)c2n1` [Compound 144a, 2-{[4-({1-[(4-chloro-2-fluorophenyl)methyl]-6-oxo-1,6-dihydropyridazin-3-yl}oxy)piperidin-1-yl]methyl}-3-{[(2S)-oxetan-2-yl]methyl}-3H-imidazo[4,5-b]pyridine-5-carboxylic acid]: the EC50 was determined as 4.8 nM.
On the same count and under the same terms, with `O=C(O)c1ccc2nc(CN3CCC(Oc4cccc(Cc5ccc(C(F)(F)F)cc5)n4)CC3)n(C[C@@H]3CCO3)c2n1` [Compound 145a, 3-{[(2S)-oxetan-2-yl]methyl}-2-({4-[(6-{[4-(trifluoromethyl)phenyl]methyl}pyridin-2-yl)oxy]piperidin-1-yl}methyl)-3H-imidazo[4,5-b]pyridine-5-carboxylic acid] the figure was 3.4 nM; with `O=C(O)c1ccc2nc(CN3CCC(Oc4cccc(Cc5ccc(C6CC6)cc5)n4)CC3)n(C[C@@H]3CCO3)c2n1` [Compound 146a, 2-{[4-({6-[(4-cyclopropylphenyl)methyl]pyridin-2-yl}oxy)piperidin-1-yl]methyl}-3-{[(2S)-oxetan-2-yl]methyl}-3H-imidazo[4,5-b]pyridine-5-carboxylic acid], 0.62 nM; with `O=C(O)c1ccc2nc(CN3CCC(Oc4cccc(CN5Cc6ccccc6C5=O)n4)CC3)n(C[C@@H]3CCO3)c2n1` [Compound 148a, 3-{[(2S)-oxetan-2-yl]methyl}-2-{[4-({6-[(1-oxo-2,3-dihydro-1H-isoindol-2-yl)methyl]pyridin-2-yl}oxy)piperidin-1-yl]methyl}-3H-imidazo[4,5-b]pyridine-5-carboxylic acid], 4.4 nM.
Still for that read-out and setting: with `O=C(O)c1ccc2nc(CN3CCC(Oc4cccc(Cn5ccc(Cl)cc5=O)n4)CC3)n(C[C@@H]3CCO3)c2n1` [Compound 149a, 2-{[4-({6-[(4-chloro-2-oxo-1,2-dihydropyridin-1-yl)methyl]pyridin-2-yl}oxy)piperidin-1-yl]methyl}-3-{[(2S)-oxetan-2-yl]methyl}-3H-imidazo[4,5-b]pyridine-5-carboxylic acid] the figure was 5.6 nM.
Regarding `O=C(O)c1ccc2nc(CN3CCC(Oc4ccc(F)c(Cc5ccc(Cl)cc5F)n4)CC3)n(C[C@@H]3CCO3)c2n1` [Compound 150a, (S)-2-((4-((6-(4-chloro-2-fluorobenzyl)-5-fluoropyridin-2-yl)oxy)piperidin-1-yl)methyl)-3-(oxetan-2-ylmethyl)-3H-imidazo[4,5-b]pyridine-5-carboxylic acid], the EC50 is 68 nM.
As to `O=C(O)c1ccc2nc(CN3CCC(Oc4nc(Cc5ccc(Cl)cc5F)ncc4F)CC3)n(C[C@@H]3CCO3)c2n1` [Compound 151a, (S)-2-((4-((2-(4-chloro-2-fluorobenzyl)-5-fluoropyrimidin-4-yl)oxy)piperidin-1-yl)methyl)-3-(oxetan-2-ylmethyl)-3H-imidazo[4,5-b]pyridine-5-carboxylic acid], the EC50 stood at 0.085 nM.
The same measure, in the same setting: with `O=C(O)c1ccc2nc(CN3CCC(Oc4ccnc(Cc5ccc(Cl)cc5)n4)CC3)n(C[C@@H]3CCO3)c2n1` [Compound 152a, 2-{[4-({2-[(4-chlorophenyl)methyl]pyrimidin-4-yl}oxy)piperidin-1-yl]methyl}-3-{[(2S)-oxetan-2-yl]methyl}-3H-imidazo[4,5-b]pyridine-5-carboxylic acid] the figure was 0.038 nM.
Still for that read-out and setting: with `O=C(O)c1ccc2nc(CN3CCC(Oc4cncc(Cc5ccc(Cl)cc5)n4)CC3)n(C[C@@H]3CCO3)c2n1` [Compound 153a, 2-{[4-({6-[(4-chlorophenyl)methyl]pyrazin-2-yl}oxy)piperidin-1-yl]methyl}-3-{[(2S)-oxetan-2-yl]methyl}-3H-imidazo[4,5-b]pyridine-5-carboxylic acid] the figure was 0.14 nM; with `Cc1cc(Cc2ccc(Cl)cc2)nc(OC2CCN(Cc3nc4ccc(C(=O)O)nc4n3C[C@@H]3CCO3)CC2)c1` [Compound 154a, 2-{[4-({6-[(4-chlorophenyl)methyl]-4-methylpyridin-2-yl}oxy)piperidin-1-yl]methyl}-3-{[(2S)-oxetan-2-yl]methyl}-3H-imidazo[4,5-b]pyridine-5-carboxylic acid], 24 nM.
Turning to `O=C(O)c1ccc2nc(CN3CCC(Oc4cc(Cl)cc(Cc5ccc(Cl)cc5)n4)CC3)n(C[C@@H]3CCO3)c2n1` [Compound 155a, 2-{[4-({4-chloro-6-[(4-chlorophenyl)methyl]pyridin-2-yl}oxy)piperidin-1-yl]methyl}-3-{[(2S)-oxetan-2-yl]methyl}-3H-imidazo[4,5-b]pyridine-5-carboxylic acid], the EC50 came out at 3.8 nM.
For the compound `O=C(O)c1ccc2nc(CN3CCC(Oc4cc(C(F)(F)F)cc(Cc5ccc(Cl)cc5)n4)CC3)n(C[C@@H]3CCO3)c2n1` [Compound 156a, 2-{[4-({6-[(4-chlorophenyl)methyl]-4-(trifluoromethyl)pyridin-2-yl}oxy)piperidin-1-yl]methyl}-3-{[(2S)-oxetan-2-yl]methyl}-3H-imidazo[4,5-b]pyridine-5-carboxylic acid], the EC50 was found to be 40 nM.

Still in this assay, the particulars now being: HEK293/CRE-Luc cell line stably expressing the GLP-1 Receptor; 30 min incubation at 37° C.; read-out: GLP1R cAMP Stimulation DR: pEC50 (converted).
On to `O=C(O)c1ccc2nc(CN3CCC(Oc4cccc(C(F)(F)c5ccc(Cl)cc5F)n4)CC3)n(C[C@@H]3CCO3)c2n1` [Compound 129a, 2-{[4-({6-[(4-chloro-2-fluorophenyl)difluoromethyl]pyridin-2-yl}oxy)piperidin-1-yl]methyl}-3-{[(2S)-oxetan-2-yl]methyl}-3H-imidazo[4,5-b]pyridine-5-carboxylic acid], for which the EC50 was 1 nM.
`O=C(O)c1ccc2nc(CN3CCC(Oc4cncc(Cc5ccc(Cl)cc5)n4)CC3)n(C[C@@H]3CCO3)c2n1` [Compound 153a, 2-{[4-({6-[(4-chlorophenyl)methyl]pyrazin-2-yl}oxy)piperidin-1-yl]methyl}-3-{[(2S)-oxetan-2-yl]methyl}-3H-imidazo[4,5-b]pyridine-5-carboxylic acid]: the EC50 was 0.158 nM.
